{"source": "ChEMBL document CHEMBL6182945", "about": "“MMAE-Based Peptide-Drug Conjugates Targeting GPC3 for Precision Chemoradiotherapy in Hepatocellular Carcinoma” (J Med Chem, 2025)", "key": {"Huh-7 [1]": {"tested_on": "Huh-7", "assay": "Cell cycle arrest in human Huh-7 cells assessed as accumulation of cells at S phase at 100 nM measured after 24 hrs incubation by PI staining based flow cytometry (reference value: 33.15%)", "type": "functional"}, "LX-2 [2]": {"tested_on": "LX-2", "assay": "Cell cycle arrest in human LX-2 cells assessed as accumulation of cells at G2/M phase at 10 nM measured after 24 hrs incubation by PI staining based flow cytometry (reference value: 14.65%)", "type": "functional"}, "Huh-7 [3]": {"tested_on": "Huh-7", "assay": "Decrease in CDK1 expression in human irradiated Huh-7 cells at 100 nM measured after 24 hrs by Western blot analysis relative to irradiation alone", "type": "functional, cell-based"}, "Huh-7 [4]": {"tested_on": "Huh-7", "assay": "Cell cycle arrest in human Huh-7 cells assessed as accumulation of cells at G0/G1 phase at 50 nM measured after 24 hrs incubation by PI staining based flow cytometry (reference value: 44.20%)", "type": "functional"}, "Huh-7 [5]": {"tested_on": "Huh-7", "assay": "Cell cycle arrest in human Huh-7 cells assessed as accumulation of cells at G0/G1 phase at 100 nM measured after 24 hrs incubation by PI staining based flow cytometry (reference value: 47.97%)", "type": "functional"}, "Huh-7 [6]": {"tested_on": "Huh-7", "assay": "Cell cycle arrest in human Huh-7 cells assessed as accumulation of cells at S phase at 30 nM measured after 24 hrs incubation by PI staining based flow cytometry (reference value: 33.15%)", "type": "functional"}, "Hep 3B2 [7]": {"tested_on": "Hep 3B2", "assay": "Cell cycle arrest in human Hep3B cells assessed as accumulation of cells at S phase at 10 nM measured after 24 hrs incubation by PI staining based flow cytometry (reference value: 28.91%)", "type": "functional"}, "LX-2 [8]": {"tested_on": "LX-2", "assay": "Cell cycle arrest in human LX-2 cells assessed as accumulation of cells at G0/G1 phase at 30 nM measured after 24 hrs incubation by PI staining based flow cytometry (reference value: 48.42%)", "type": "functional"}, "Huh-7 [9]": {"tested_on": "Huh-7", "assay": "Cell cycle arrest in human Huh-7 cells assessed as accumulation of cells at phase G2/M at 50 nM measured after 30 hrs incubation by PI staining based flow cytometry (reference value: 18.42%)", "type": "functional"}, "Huh-7 [10]": {"tested_on": "Huh-7", "assay": "Induction of immunogenic cell death (ICD) in human Huh-7 cells assessed as translocation of HMGB1 from nucleus to cytoplasm at 100 nM measured after 24 hrs by immunofluorescence assay", "type": "functional, cell-based"}, "Huh-7 [11]": {"tested_on": "Huh-7", "assay": "Induction of radiation induced gamma-H2AX phosphorylation in human irradiated Huh-7 cells at 100 nM measured after 24 hrs by Western blot analysis", "type": "functional, cell-based"}, "Huh-7 [12]": {"tested_on": "Huh-7", "assay": "In vivo antitumor activity against human Huh-7 cells xenografted in female BALB/c mouse assessed as reduction in Ki67 expression in tumor at 2 mg/kg, iv total 4 doses measured on day 17 relative to control", "type": "functional, organism-based", "conditions": "time 17.0 day"}, "Huh-7 [13]": {"tested_on": "Huh-7", "assay": "Cell cycle arrest in human Huh-7 cells assessed as accumulation of cells at phase G2/M at 50 nM measured after 18 hrs incubation by PI staining based flow cytometry (reference value: 18.42%)", "type": "functional"}, "Huh-7 [14]": {"tested_on": "Huh-7", "assay": "Cell cycle arrest in human Huh-7 cells assessed as accumulation of cells at G0/G1 phase at 30 nM measured after 24 hrs incubation by PI staining based flow cytometry (reference value: 47.97%)", "type": "functional"}, "Huh-7 [15]": {"tested_on": "Huh-7", "assay": "Cell cycle arrest in human Huh-7 cells assessed as accumulation of cells at phase G2/M at 50 nM measured after 24 hrs incubation by PI staining based flow cytometry (reference value: 18.42%)", "type": "functional"}, "[16]": {"target": "Serine/threonine-protein kinase Chk2 (Homo sapiens) (UniProt O96017)", "sequence (O96017 whole entry)": "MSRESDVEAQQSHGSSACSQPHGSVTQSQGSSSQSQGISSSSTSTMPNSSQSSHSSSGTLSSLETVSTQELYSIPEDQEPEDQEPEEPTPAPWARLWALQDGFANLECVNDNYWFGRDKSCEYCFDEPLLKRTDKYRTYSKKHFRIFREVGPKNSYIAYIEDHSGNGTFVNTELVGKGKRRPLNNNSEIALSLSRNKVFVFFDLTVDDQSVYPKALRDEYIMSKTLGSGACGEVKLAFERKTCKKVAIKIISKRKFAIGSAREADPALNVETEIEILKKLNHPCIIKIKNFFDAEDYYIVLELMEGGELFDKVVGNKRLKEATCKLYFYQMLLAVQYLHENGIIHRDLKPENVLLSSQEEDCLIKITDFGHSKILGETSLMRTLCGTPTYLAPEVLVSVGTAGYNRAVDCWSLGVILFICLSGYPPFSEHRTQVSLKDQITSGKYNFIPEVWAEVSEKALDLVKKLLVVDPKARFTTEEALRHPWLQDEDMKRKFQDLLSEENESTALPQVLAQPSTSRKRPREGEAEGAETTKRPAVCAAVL", "assay": "Induction of CHK2 phosphorylation in human irradiated Huh-7 cells at 100 nM measured after 24 hrs by Western blot analysis", "type": "cell-based"}, "Huh-7 [17]": {"tested_on": "Huh-7", "assay": "Cell cycle arrest in human Huh-7 cells assessed as accumulation of cells at S phase at 50 nM measured after 30 hrs incubation by PI staining based flow cytometry (reference value: 37.30%)", "type": "functional"}, "Huh-7 [18]": {"tested_on": "Huh-7", "assay": "Induction of DNA damage in human irradiated Huh-7 cells assessed as increase in DNA double break by measuring gamma-H2AX foci formation at 100 nM measured after 24 hrs by immunostaining assay relative to compound alone/irradiation alone", "type": "functional, cell-based"}, "Huh-7 [19]": {"tested_on": "Huh-7", "assay": "Cell cycle arrest in human Huh-7 cells assessed as accumulation of cells at G0/G1 phase at 50 nM measured after 30 hrs incubation by PI staining based flow cytometry (reference value: 44.20%)", "type": "functional"}, "Huh-7 [20]": {"tested_on": "Huh-7", "assay": "Cell cycle arrest in human Huh-7 cells assessed as accumulation of cells at S phase at 50 nM measured after 18 hrs incubation by PI staining based flow cytometry (reference value: 37.30%)", "type": "functional"}, "LX-2 [21]": {"tested_on": "LX-2", "assay": "Cell cycle arrest in human LX-2 cells assessed as accumulation of cells at G0/G1 phase at 10 nM measured after 24 hrs incubation by PI staining based flow cytometry (reference value: 48.42%)", "type": "functional"}, "Huh-7 [22]": {"tested_on": "Huh-7", "assay": "In vivo antitumor activity against human Huh-7 cells xenografted in female BALB/c mouse assessed as delay in tumor growth at 1 mg/kg, iv followed by irradiated with 2 Gy for 2 consecutive days, once a week for 3 weeks measured on day 22", "type": "functional, organism-based", "conditions": "time 22.0 day"}, "Huh-7 [23]": {"tested_on": "Huh-7", "assay": "Decrease in CDC25C expression in human irradiated Huh-7 cells at 100 nM measured after 24 hrs by Western blot analysis", "type": "functional, cell-based"}, "Huh-7 [24]": {"tested_on": "Huh-7", "assay": "In vivo antitumor activity against human Huh-7 cells xenografted in female BALB/c mouse assessed as delay in tumor growth at 1 mg/kg, iv for 2 consecutive days, once a week for 3 weeks measured on day 22", "type": "functional, organism-based", "conditions": "time 22.0 day"}, "Hep 3B2 [25]": {"tested_on": "Hep 3B2", "assay": "Cell cycle arrest in human Hep3B cells assessed as accumulation of cells at G2/M phase at 30 nM measured after 24 hrs incubation by PI staining based flow cytometry (reference value: 23%)", "type": "functional"}, "Hep 3B2 [26]": {"tested_on": "Hep 3B2", "assay": "Cell cycle arrest in human Hep3B cells assessed as accumulation of cells at G0/G1 phase at 30 nM measured after 24 hrs incubation by PI staining based flow cytometry (reference value: 48%)", "type": "functional"}, "Huh-7 [27]": {"tested_on": "Huh-7", "assay": "Cell cycle arrest in human Huh-7 cells assessed as accumulation of cells at G0/G1 phase at 50 nM measured after 18 hrs incubation by PI staining based flow cytometry (reference value: 44.20%)", "type": "functional"}, "LX-2 [28]": {"tested_on": "LX-2", "assay": "Cell cycle arrest in human LX-2 cells assessed as accumulation of cells at S phase at 30 nM measured after 24 hrs incubation by PI staining based flow cytometry (reference value: 36.93%)", "type": "functional"}, "Hep 3B2 [29]": {"tested_on": "Hep 3B2", "assay": "Cell cycle arrest in human Hep3B cells assessed as accumulation of cells at S phase at 30 nM measured after 24 hrs incubation by PI staining based flow cytometry (reference value: 28.91%)", "type": "functional"}, "Huh-7 [30]": {"tested_on": "Huh-7", "assay": "Cell cycle arrest in human Huh-7 cells assessed as accumulation of cells at G2/M phase at 10 nM measured after 24 hrs incubation by PI staining based flow cytometry (reference value: 18.88%)", "type": "functional"}, "Huh-7 [31]": {"tested_on": "Huh-7", "assay": "In vivo antitumor activity against human Huh-7 cells xenografted in female BALB/c mouse assessed as gamma-H2AX positive cells at 1 mg/kg, iv followed by irradiated with 2 Gy for 2 consecutive days, once a week for 3 weeks measured on day 22", "type": "functional, organism-based", "conditions": "time 22.0 day"}, "Huh-7 [32]": {"tested_on": "Huh-7", "assay": "Cell cycle arrest in human Huh-7 cells assessed as accumulation of cells at G2/M phase at 100 nM measured after 24 hrs incubation by PI staining based flow cytometry (reference value: 18.88%)", "type": "functional"}}, "note": "Activity calls are given as the source filed them. The calls are words filed in the database; no cut-off is given here.", "data": [{"smiles": "CC[C@H](C)[C@@H]([C@@H](CC(=O)N1CCC[C@H]1[C@H](OC)[C@@H](C)C(=O)N[C@H](C)[C@@H](O)c1ccccc1)OC)N(C)C(=O)[C@@H](NC(=O)[C@H](C(C)C)N(C)C(=O)OCc1ccc(NC(=O)[C@H](CCCNC(N)=O)NC(=O)[C@@H](NC(=O)CCCCCN2C(=O)CC(SC[C@H](N)C(=O)N[C@@H](CO)C(=O)N[C@@H](CC(N)=O)C(=O)N[C@@H](CC(=O)O)C(=O)N[C@@H](CCCNC(=N)N)C(=O)N3CCC[C@@H]3C(=O)N3CCC[C@@H]3C(=O)N[C@@H](CC(N)=O)C(=O)N[C@H](C(=O)N[C@@H](CC(C)C)C(=O)N[C@@H](CCC(N)=O)C(=O)N[C@@H](CCCCN)C(=O)N[C@@H](CCCNC(=N)N)C(N)=O)[C@@H](C)CC)C2=O)C(C)C)cc1)C(C)C", "note": "(some centres not stated)", "values": [{"measurement": "Activity", "setting": "Huh-7 [1]", "value": 11.54, "unit": "%"}, {"measurement": "Activity", "setting": "LX-2 [2]", "value": 13.04, "unit": "%"}, {"measurement": "Activity", "setting": "Huh-7 [3]", "value": "Active"}, {"measurement": "Activity", "setting": "Huh-7 [4]", "value": 28.27, "unit": "%"}, {"measurement": "Activity", "setting": "Huh-7 [5]", "value": 12.12, "unit": "%"}, {"measurement": "Activity", "setting": "Huh-7 [6]", "value": 13.76, "unit": "%"}, {"measurement": "Activity", "setting": "Hep 3B2 [7]", "value": 19.52, "unit": "%"}, {"measurement": "Activity", "setting": "LX-2 [8]", "value": 46.22, "unit": "%"}, {"measurement": "Activity", "setting": "Huh-7 [9]", "value": 54.83, "unit": "%"}, {"measurement": "Activity", "setting": "Huh-7 [10]", "value": "Active"}, {"measurement": "Activity", "setting": "Huh-7 [11]", "value": "Active"}, {"measurement": "Activity", "setting": "Huh-7 [12]", "value": "Active"}, {"measurement": "Activity", "setting": "Huh-7 [13]", "value": 44.55, "unit": "%"}, {"measurement": "Activity", "setting": "Huh-7 [14]", "value": 37.22, "unit": "%"}, {"measurement": "Activity", "setting": "Huh-7 [15]", "value": 56.79, "unit": "%"}, {"measurement": "Activity", "setting": "[16]", "value": "Active"}, {"measurement": "Activity", "setting": "Huh-7 [17]", "value": 13.43, "unit": "%"}, {"measurement": "Activity", "setting": "Huh-7 [18]", "value": "Active"}, {"measurement": "Activity", "setting": "Huh-7 [19]", "value": 31.74, "unit": "%"}, {"measurement": "Activity", "setting": "Huh-7 [20]", "value": 24.32, "unit": "%"}, {"measurement": "Activity", "setting": "LX-2 [21]", "value": 48.82, "unit": "%"}, {"measurement": "Activity", "setting": "Huh-7 [22]", "value": "Active"}, {"measurement": "Activity", "setting": "Huh-7 [23]", "value": "Active"}, {"measurement": "Activity", "setting": "Huh-7 [24]", "value": "Active"}, {"measurement": "Activity", "setting": "Hep 3B2 [25]", "value": 45.12, "unit": "%"}, {"measurement": "Activity", "setting": "Hep 3B2 [26]", "value": 28.5, "unit": "%"}, {"measurement": "Activity", "setting": "Huh-7 [27]", "value": 31.13, "unit": "%"}, {"measurement": "Activity", "setting": "LX-2 [28]", "value": 38.52, "unit": "%"}, {"measurement": "Activity", "setting": "Hep 3B2 [29]", "value": 26.35, "unit": "%"}, {"measurement": "Activity", "setting": "Huh-7 [30]", "value": 35.65, "unit": "%"}, {"measurement": "Activity", "setting": "Huh-7 [31]", "value": "Active"}, {"measurement": "Activity", "setting": "Huh-7 [32]", "value": 76.34, "unit": "%"}]}]}
